Measurements published in patent US20240158430A1, “NOVEL COMPOUND OR SALT THEREOF, AND ANTITUMOR ACTIVATOR CONTAINING SAME AS ACTIVE INGREDIENT” (AKITA UNIVERSITY, priority 2021, published 2024).
Like-named read-outs stand apart in the source and are kept apart here. Values belong to the compound of their own block, whether it stands above or below them.

Experiments:
Turbidity measurement = assay type: physicochemical; conditions: for Turbidity (Relative Value): Table 3, relative to curcumin = 1
Experimental: The turbidity of various compounds was measured. The method is as follows. […] Curcumin was cloudy while GO-Y199 was clear. The solubility was measured with a turbidimeter (WZB-170 Portable Turbidimeter available from REX). The turbidity of the compound was corrected for concentration.
Subsequently, GO-Y206 and curcumin were adjusted to final concentrations of 1.25 μM and 5.00 μM, respectively, and their turbidities were measured.

[1] = test system: colorectal cancer cell line HCT116; assay: Cell growth inhibitory activity, HCT116; assay type: cell-based
Experimental: (§1) The cell growth inhibitory activity against a colorectal cancer cell line HCT116 was measured. As an index of cell growth inhibitory activity, a concentration at which cell growth was inhibited by 50% as compared with a control (IC50) was used. The method is as follows. HCT116 was added to a 6-well plate by 5×10^4, compounds having various concentrations were added after 24 hours, and the number of cells was counted after 72 hours of culture. As the control, DMSO was used in an amount equal to the amount added in accordance with the addition concentration of the highest-concentration compound. The number of cells at each concentration relative to the control was expressed as a percentage.
(§2) The method is as described above.
(§3) The cell growth inhibitory activity (IC50) of each of curcumin, GO-Y199, and GO-Y206 against the colorectal cancer cell lines DLD-1 and HCT116 and the gastric cancer cell lines KATO III and H-111-TC was measured. The method is as described above.

[2] = test system: gastric cancer cell line SH-10-TC; assay: Cell growth inhibitory activity, SH-10-TC; assay type: cell-based; conditions: SH-10-TC; Table 4; 72 hours
Experimental: [The source words this procedure for another cell line and reports this cell line under the same test.] as §1, §2

[3] = test system: gastric cancer cell line KATO III; assay: Cell growth inhibitory activity, KATO III; assay type: cell-based; conditions: Table 6, read-out: IC50 (μM) KATO III
Experimental: as §1, §2, §3

[4] = test system: gastric cancer cell line GCIY; assay: Cell growth inhibitory activity, GCIY; assay type: cell-based; conditions: Homo sapiens, GCIY; Table 4; 72 hours
Experimental: [The source words this procedure for another cell line and reports this cell line under the same test.] as §1, §2

[5] = test system: colorectal cancer cell line DLD-1; assay: Cell growth inhibitory activity, DLD-1; assay type: cell-based
Experimental: as §1, §2, §3

[6] = test system: gastric cancer cell line H-111-TC; assay: Cell growth inhibitory activity, H-111-TC; assay type: cell-based; conditions: Table 6
Experimental: as §1, with “percentage. In Table 3, the turbidities of the compounds are also indicated.” for “percentage.”
as §3, with “above. FIG. 8 indicates the results of cell growth inhibitory activity of these compounds against various cancer cell lines.” for “above.”

[7] = test system: pancreatic cancer cell line ASPC-1; assay: Cell growth inhibitory activity, ASPC-1; assay type: cell-based; conditions: Table 7
Experimental: [The source words this procedure for another cell line and reports this cell line under the same test.] as §1, §2

[8] = test system: pancreatic cancer cell line Panc-1; assay: Cell growth inhibitory activity, Panc-1; assay type: cell-based; conditions: Table 7
Experimental: [The source words this procedure for another cell line and reports this cell line under the same test.] as §1, §2

[9] = test system: malignant pleural mesothelioma cell line NCI-H226; assay: Cell growth inhibitory activity, NCI-H226; assay type: cell-based; conditions: Table 8
Experimental: as §1, with “percentage. In Table 3, the turbidities of the compounds are also indicated.” for “percentage.”
(§4) GO-Y198, GO-Y199, and GO-Y200 against malignant pleural mesothelioma cell lines NCI-H226 and MSTO211H was measured. The method is as described above. For comparison, the IC50 of cisplatin (CDDP), a cytocidal anticancer agent, is also indicated.

[10] = test system: malignant pleural mesothelioma cell line MSTO211H; assay: Cell growth inhibitory activity, MSTO211H; assay type: cell-based; conditions: Table 8
Experimental: as §1, with “percentage. In Table 3, the turbidities of the compounds are also indicated.” for “percentage.”
as §4

[11] = test system: malignant melanoma cell line G361; assay: Cell growth inhibitory activity, G361; assay type: cell-based; conditions: Table 9
Experimental: [The source words this procedure for another cell line and reports this cell line under the same test.] as §1, §2

[12] = test system: cutaneous T-cell lymphoma cell line HH; assay: Cell growth inhibitory activity, HH; assay type: cell-based; conditions: Table 10
Experimental: [The source words this procedure for another cell line and reports this cell line under the same test.] as §1, §2

[13] = test system: cutaneous T-cell lymphoma cell line HUT78; assay: Cell growth inhibitory activity, HUT78; assay type: cell-based; conditions: Table 10
Experimental: [The source words this procedure for another cell line and reports this cell line under the same test.] as §1, §2

[14] = test system: vascular endothelial cells HUVEC-R resistant to Ki8751; assay: Angiogenesis inhibitory activity, HUVEC-R; assay type: cell-based; conditions: Table 11, number of cells after 72 hours
Experimental: HUVEC-R was cultured in the presence of each compound using an EGMTM-2 Bullet Kit (Takara Bio Inc., Otsu, Japan), and the number of cells was measured after 72 hours. In addition, IC50 was determined from the results.

[15] = Table 1, average turbidity corrected for final concentration (1.7-170 μm, per compound)
[16] = Table 1, turbidity/μm relative to curcumin = 1
[17] = Table 3, HCT116, cell count after 72 hours of culture vs DMSO control, read-out: IC50
[18] = Table 2, value in parentheses, relative to curcumin = 1.00

Compound: COCOc1cc(/C=C/C(=O)CC(SCC(=O)OC)c2cc(OCOC)cc(OCOC)c2)cc(OCOC)c1 (racemic) [GO-Y136, reference compound]
Turbidity/μm (Turbidity measurement; [15]): 0.024 NTU/μM | Relative Value (turbidity) (Turbidity measurement; [16]): 0.083 | Turbidity (Relative Value) (Turbidity measurement): 0.083 | Ave Turbidity (NTU) (Turbidity measurement; final conc. 1.7 μm in DDW): 0.04 ± 0.0082 NTU | IC50 [1, 17]: 0.89 µM

Compound: COCOc1cc(C=CC(=O)CC(SCCOCCOCCOCCOCc2cn(CCCOC(=O)CCCCC3SCC4NC(=O)NC43)nn2)c2cc(OCOC)cc(OCOC)c2)cc(OCOC)c1 (mixture of isomers) [GO-Y195]
IC50 [1, 17]: 1.8 µM

Compound: COc1cc(/C=C/C(=O)CC(=O)/C=C/c2ccc(O)c(OC)c2)ccc1O [curcumin, reference compound]
Turbidity/μm (Turbidity measurement; [15]): 0.29 NTU/μM | Relative Value (turbidity) (Turbidity measurement; [16]): 1 | Turbidity (NTU) (Turbidity measurement; Table 2, final conc. 1.25 μM): 4.96 NTU | Turbidity/μm (Turbidity measurement; Table 2, final conc. 1.25 μM): 3.968 NTU/μM | Turbidity (NTU) (Turbidity measurement; Table 2, final conc. 5.0 μM): 29.0 NTU | Turbidity/μm (Turbidity measurement; Table 2, final conc. 5.0 μM): 5.8 NTU/μM | Relative Value (turbidity) (Turbidity measurement; [18]): (1.00) | Turbidity (Relative Value) (Turbidity measurement): 1 | appearance of solution (Turbidity measurement; final concentration 50 μM in distilled water or DMEM with 10% fetal bovine serum, from DMSO): cloudy | IC50 ([1]; Homo sapiens, HCT-116, read-out: IC50 HCT-116, Table 4, 72 hours): 16 µM | IC50 ([1]; Homo sapiens, HCT-116, Table 3, HCT116, cell count after 72 hours of culture vs DMSO control, read-out: IC50): 16 µM | IC50 ([1]; Homo sapiens, HCT-116, Table 6, read-out: IC50 (μM) HCT116): 7.08 µM | IC50 [2]: 8.07 µM | IC50 ([3]; Homo sapiens, KATO III): 11 µM | IC50 [4]: 8.66 µM | IC50 ([5]; Homo sapiens, DLD-1, Table 4, 72 hours, read-out: IC50 DLD-1): 18.7 µM | IC50 ([5]; Homo sapiens, DLD-1, Table 6, read-out: IC50 (μM) DLD-1): 44.8 µM | IC50 [6]: > 50 µM | IC50 ([7]; Homo sapiens, ASPC1): 18.5 µM | IC50 ([8]; Homo sapiens, PANC-1): 29.2 µM | IC50 ([9]; Homo sapiens, NCI-H226): 15.1 µM | IC50 ([10]; Homo sapiens, MSTO-211H): 33.7 µM | IC50 ([11]; Homo sapiens, G-361): 16.8 µM | IC50 ([12]; T-cell): 18.1 µM | IC50 ([13]; Homo sapiens, HuT78): 9.01 µM | IC50 ([14]; Endothelial cell): 11.9 µM

Compound: COCOc1cc(/C=C/C(=O)/C=C/c2cc(OCOC)cc(OCOC)c2)cc(OCOC)c1 [GO-Y030, (1E,4E)-1,5-bis-[3,5-bis(methoxymethoxy)phenyl]pentadiene-3-one, reference compound]
Turbidity/μm (Turbidity measurement; [15]): 2.68 NTU/μM | Ave Turbidity (NTU) (Turbidity measurement; final conc. 17 μm in DDW): 45.6 ± 0.21 NTU | Turbidity (NTU) (Turbidity measurement; individual measurements, final conc. 170 μm, DMSO stock diluted in 30 mL DDW): over limit

Compound: COCOc1cc(C=CC(=O)CC(SCCOCCOCCOCCOCc2cn(C3CC(O)C(O)C(CO)O3)nn2)c2cc(OCOC)cc(OCOC)c2)cc(OCOC)c1 (mixture of isomers) [GO-Y206]
Turbidity/μm (Turbidity measurement; Table 2, final conc. 1.25 μM): 0.144 NTU/μM | Turbidity (NTU) (Turbidity measurement; Table 2, final conc. 5.0 μM): 1.82 NTU | Turbidity/μm (Turbidity measurement; Table 2, final conc. 5.0 μM): 0.364 NTU/μM | Relative Value (turbidity) (Turbidity measurement; [18]): (0.052) | turbidity as percent of curcumin (Turbidity measurement; from averaged NTU/μM): 5% | IC50 ([1]; Table 6, read-out: IC50 (μM) HCT116): 0.91 µM | IC50 [3]: 3.11 µM | IC50 ([5]; Table 6, read-out: IC50 (μM) DLD-1): 1.21 µM | IC50 [6]: 4.67 µM

Compound: COc1cc(/C=C/C(=O)/C=C/c2ccc(O)c(OC)c2)ccc1O [GO-Y022, reference compound]
Turbidity/μm (Turbidity measurement; [15]): 0.014 NTU/μM | Relative Value (turbidity) (Turbidity measurement; [16]): 0.048 | Turbidity (Relative Value) (Turbidity measurement): 0.048 | Ave Turbidity (NTU) (Turbidity measurement; final conc. 8.3 μm in DDW): 0.12 ± 0.0094 NTU | IC50 [1, 17]: 2.02 µM | IC50 [7]: 8.52 µM | IC50 [8]: 6.67 µM | IC50 [11]: 3.1 µM | IC50 [12]: 9.16 µM | IC50 [13]: 4.03 µM | IC50 [14]: 4.7 µM

Compound: COCOc1cc(/C=C/C(=O)CC(SCCOCCOCCOCCOCc2cn([C@H]3O[C@@H](CO)[C@H](O)[C@@H](O)[C@@H]3O)nn2)c2cc(OCOC)cc(OCOC)c2)cc(OCOC)c1 (stereo partly shown) [GO-Y197]
Turbidity/μm (Turbidity measurement; [15]): 0 NTU/μM | Relative Value (turbidity) (Turbidity measurement; [16]): 0 | Turbidity (Relative Value) (Turbidity measurement): 0 | Ave Turbidity (NTU) (Turbidity measurement; final conc. 8.3 μm in DDW): 0 NTU | IC50 [1, 17]: 0.7 µM | IC50 [9]: 4 µM | IC50 [10]: 3.9 µM | IC50 [11]: 1.1 µM | IC50 [12]: 1.11 µM | IC50 [13]: 0.81 µM | IC50 [14]: 0.96 µM

The next lines start with results.

Turbidity/μm (Turbidity measurement; [15]): 0 NTU/μM | Relative Value (turbidity) (Turbidity measurement; [16]): 0 | Turbidity (Relative Value) (Turbidity measurement): 0 | Ave Turbidity (NTU) (Turbidity measurement; final conc. 8.3 μm in DDW): 0 NTU | IC50 [1, 17]: 0.67 µM
Compound: COCOc1cc(C=CC(=O)CC(SCCOCCOCCOCCOCc2cn(C3OC(CO)C(O)C(O)C3O)nn2)c2cc(OCOC)cc(OCOC)c2)cc(OCOC)c1 (mixture of isomers) [GO-Y196]

IC50 [1, 17]: 0.5 µM
Compound: COCOc1cc(/C=C/C(=O)CC(SCCOCCOCCOCCOCc2cn(CCCO)nn2)c2cc(OCOC)cc(OCOC)c2)cc(OCOC)c1 (racemic) [GO-Y194]

Turbidity/μm (Turbidity measurement; [15]): 0 NTU/μM | Relative Value (turbidity) (Turbidity measurement; [16]): 0 | Turbidity (Relative Value) (Turbidity measurement): 0 | Ave Turbidity (NTU) (Turbidity measurement; final conc. 8.3 μm in DDW): 0 NTU | IC50 [1, 17]: 0.44 µM | IC50 [9]: 4.2 µM | IC50 [10]: 0.9 µM | IC50 [12]: 1.15 µM | IC50 [13]: 0.51 µM
Compound: COCOc1cc(/C=C/C(=O)CC(SCCOCCOCCOCCOCc2cn([C@H]3O[C@H](CO)[C@@H](O)[C@H](O)[C@@H]3O)nn2)c2cc(OCOC)cc(OCOC)c2)cc(OCOC)c1 (stereo partly shown) [GO-Y198]
IC50 [14]: 1.08 µM

Turbidity/μm (Turbidity measurement; [15]): 0 NTU/μM | Relative Value (turbidity) (Turbidity measurement; [16]): 0 | Turbidity (Relative Value) (Turbidity measurement): 0 | Ave Turbidity (NTU) (Turbidity measurement; final conc. 8.3 μm in DDW): 0 NTU | IC50 [1, 17]: 0.42 µM | IC50 [7]: 1.33 µM | IC50 [8]: 0.91 µM | IC50 [9]: 4.7 µM | IC50 [10]: 4.5 µM | IC50 [12]: 1.31 µM | IC50 [13]: 0.91 µM
Compound: COCOc1cc(/C=C/C(=O)CC(SCCOCCOCCOCCOCc2cn([C@@H]3O[C@H](CO)[C@@H](O[C@H]4O[C@H](CO)[C@@H](O)[C@H](O)[C@H]4O)[C@H](O)[C@H]3O)nn2)c2cc(OCOC)cc(OCOC)c2)cc(OCOC)c1 (stereo partly shown) [GO-Y200]
IC50 [14]: 1.3 µM
